# Source: patent US5264429A, “2-spirocyclopropyl cephalosporin sulfone derivatives” (SynPhar Laboratories, Inc., priority 1991, dated 1993)
# Where two headings read alike, the source gives them in different places.
# Legend:
# cathepsin C = target: T1, cathepsin C (Bos taurus, UniProt Q3ZCJ8); assay: Inhibition of cathepsin C (CTC); type: biochemical, bovine
# T1 construct: from tissue; host or cells: bovine spleen
# Experimental: (§1) HLE, CTG, PPE and CTD were tested at 30° C. and the others were
# (§2) TRY, trypsin; THR, thrombin; PTH, plasmin; CTC, cathepsin C; ATM,
# Enzyme: Purified cathepsin C from bovine spleen
# Substrate: Glycyl-L-phenylalanine-pNA
# Reaction mixture: 50 mM Citrate buffer (pH 5.4), 5 mM B-Mercaptoethanol, 150 mM NaCl, 10% DMSO, 20 mM Substrate.
# (§3) Except for Cathepsin D, the enzyme activities were determined by monitoring the increase in absorbance at 410 nm caused by the hydrolysis of chromogenic substrates. The activity of Cathepsin D was determined by monitoring the absorbance of 5% trichloroacetic acid-soluble material at 280 nm.
# (§4) Inhibition of enzymes by the compounds described were determined after a 10 minute preincubation with enzymes in reaction mixtures minus substrate. Reactions were initiated by the addition of substrates. The concentration used for assays were porcine pancreatic elastase at 240 nM and human Cathepsin G at 50 nM. Cathepsin D was used at the concentration that produced approximately 0.15 O.D. increase per 20 min at 280 nm under the standard conditions. All other proteases were assayed at the concentrations that produced approximately 0.1 O.D. change per minute at 410 nm under the standard conditions.
# cathepsin G = target: T2, cathepsin G (Homo sapiens, UniProt P08311); assay: Inhibition of cathepsin G (CTG); type: biochemical
# T2 construct: from tissue; host or cells: human white blood cells
# T2 sequence (P08311 21-244 limits assumed): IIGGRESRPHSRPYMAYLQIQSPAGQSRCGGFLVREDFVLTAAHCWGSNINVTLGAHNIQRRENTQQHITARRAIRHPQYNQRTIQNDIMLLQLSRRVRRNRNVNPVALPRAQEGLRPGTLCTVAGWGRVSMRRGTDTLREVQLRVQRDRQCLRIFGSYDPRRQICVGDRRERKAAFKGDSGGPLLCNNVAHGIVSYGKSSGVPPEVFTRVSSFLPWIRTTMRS
# Experimental: Enzyme: Purified Cathepsin G from human white blood cells
# Substrate: N-succinyl-L-alanyl-L-alanyl-L-phenylalanyl-L-phenylalanine -p-NA.
# Reaction mixture: 10 mM Phosphate buffer (pH 7.5), 500 mM NaCl, 10% DMSO, 2.0 mM Substrate.
# thrombin = target: T3, thrombin (Homo sapiens, UniProt P00734); assay: Inhibition of thrombin (THR); type: biochemical; settings: pH 8.6, 10 minute preincubation, 22° C.
# T3 construct: from tissue; host or cells: human plasma
# Experimental: as §1, §2
# Enzyme: Purified thrombin from human plasma
# Substrate: Tosyl-glycyl-L-prolyl-L-arginine-p-NA acetate
# Reaction mixture: 50 mM Tricine-NaOH buffer (pH 8.6), 500 mM NaCl, 0.1% Polyethyleneglycol 8000, 10% DMSO, 0.5 mM Substrate.
# as §3, §4
# [1] = target: T4, porcine pancreatic elastase (Sus scrofa, UniProt P00772); assay: Inhibition of porcine pancreatic elastase (PPE); type: biochemical; settings: porcine pancreatic elastase 240 nM, pH 8.9, 10 minute preincubation, 30° C.
# T4 construct: from tissue; host or cells: porcine pancreas
# Experimental: as §1
# aminopeptidase M; CTG, cathespin G; CTD, cathespin D; PPE, porcine
# Porcine pancreatic Elastase (PPE)
# Enzyme: Purified elastase from porcine pancreas
# Substrate: MeO-succinyl-L-alanyl-L-alanyl-L-prolyl-L-valine-pNA
# Reaction mixture: 50 mM Tris[Tris(hydroxymethyl) aminomethane]. HCl buffer (pH 8.9), 500 mM NaCl, 10% DMSO, 1.4 mM Substrate.
# as §3, §4
# [2] = cathepsin C, pH 5.4, 10 minute preincubation, 22° C., read-out: IC50 CTC
# [3] = cathepsin G 50 nM, pH 7.5, 10 minute preincubation, 30° C., read-out: IC50 CTG (converted)
# T1 sequence (Q3ZCJ8 231-394 limits assumed): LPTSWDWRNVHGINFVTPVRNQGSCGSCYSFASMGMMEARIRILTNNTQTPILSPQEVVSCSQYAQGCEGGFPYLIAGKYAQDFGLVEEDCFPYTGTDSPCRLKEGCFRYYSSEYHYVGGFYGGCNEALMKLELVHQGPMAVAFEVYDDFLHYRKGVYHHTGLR
# T1 sequence (Q3ZCJ8 395-463 limits assumed): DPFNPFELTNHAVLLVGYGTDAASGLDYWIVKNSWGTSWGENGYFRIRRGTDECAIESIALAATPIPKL
# T1 sequence (Q3ZCJ8 25-134 limits assumed): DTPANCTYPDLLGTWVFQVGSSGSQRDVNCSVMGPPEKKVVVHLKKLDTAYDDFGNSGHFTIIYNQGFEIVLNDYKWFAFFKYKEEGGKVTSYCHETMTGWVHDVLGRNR
# T4 sequence (P00772 27-266): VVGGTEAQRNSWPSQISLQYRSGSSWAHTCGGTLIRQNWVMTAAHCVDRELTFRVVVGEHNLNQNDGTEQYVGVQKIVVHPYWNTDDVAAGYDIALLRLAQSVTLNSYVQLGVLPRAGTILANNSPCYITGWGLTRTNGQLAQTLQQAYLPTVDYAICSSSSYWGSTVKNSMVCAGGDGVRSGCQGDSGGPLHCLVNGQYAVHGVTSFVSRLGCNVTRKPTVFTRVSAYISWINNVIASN
Compound,IC50 (cathepsin C; [2]),IC50 (cathepsin G; [3]),IC50 (thrombin),IC50 [1],IC50 (cathepsin C),IC50 (cathepsin G)
"CCO[C@H]1C(=O)N2C(C(=O)OCC(Cl)(Cl)Cl)=C(C)C3(CC3(c3ccccc3)c3ccccc3)S(=O)(=O)[C@H]12 (stereo partly drawn) [Example 7, 2,2,2-Trichloroethyl-7α-ethoxy-2-spiro(2',2'-diphenyl)cyclo-propyl-3-methyl-3-cephem-4-carboxylate-1,1-dioxide]",> 10 µM,0.32 µM,> 10 µM,0.0161 µM,–,–
"CC1=C(C(=O)OC(C)(C)C)N2C(=O)[C@H](Br)[C@H]2S(=O)(=O)C12CC2(c1ccccc1)c1ccccc1 (stereo partly drawn) [Example 3, t-Butyl 7α-bromo-2-spiro(2',2'-diphenyl) cyclopropyl-3-methyl-3-cephem 4-carboxylate-1,1-dioxide]",> 40 µM,40 µM,> 41.9 µM,0.0937 µM,–,–
"CC1=C(C(=O)OC(c2ccccc2)c2ccccc2)N2C(=O)[C@H](Br)[C@H]2S(=O)(=O)C12CC2(c1ccccc1)c1ccccc1 (single isomer, unassigned) [Example 2, benzhydryl 7α-bromo-2-spiro(2', 2'-diphenyl) cyclopropyl-3-methyl-3-cephem-4-carboxylate-1,1-dioxide]",> 38.5 µM,> 16.2 µM,> 40 µM,0.0183 µM,–,–
"CC1=C(C(=O)OC(c2ccccc2)c2ccccc2)N2C(=O)[C@H](Br)[C@H]2S(=O)(=O)C12CC2(c1ccc(F)cc1)c1ccc(F)cc1 (single isomer, unassigned) [Example 13, Benzhydryl 7α-bromo-2-spiro[2',2'-(4',4'-difluoro)diphenyl] cyclopropyl-3-methyl-3-cephem-4-carboxylate-1,1-dioxide]",–,19 µM,> 40 µM,0.0637 µM,> 40 µM,–
"CC1=C(C(=O)OC(c2ccccc2)c2ccccc2)N2C(=O)[C@H](Br)[C@H]2S(=O)(=O)C12CC2(C)c1ccccc1 (stereo partly drawn) [Example 13 (2), Benzhydryl 7α-bromo-2-spiro(2'-phenyl-2'-methyl) cyclopropyl-3-methyl-3-cephem-4-carboxylate-1,1-dioxide]",–,–,> 40 µM,0.0557 µM,> 40 µM,40 µM
"CC1=C(C(=O)N2CCCC2)N2C(=O)[C@H](Br)[C@H]2S(=O)(=O)C12CC2(c1ccccc1)c1ccccc1 (stereo partly drawn) [Example 6, 7α Bromo-2-spiro(2',2'-diphenyl)cyclopropyl-3-methyl-3-cephem-4-pyrrolidine carboxamide-1,1-dioxide]",> 9.77 µM,> 39 µM,> 39 µM,0.203 µM,–,–
"CCOC(=O)C1CC12C(C)=C(C(=O)OC(c1ccccc1)c1ccccc1)N1C(=O)[C@H](Br)[C@H]1S2(=O)=O (stereo partly drawn) [Example 13 (1), Benzhydryl 7α-bromo-2-spiro(2'-ethoxycarbonyl)cyclopropyl-3-methyl-3-cephem-4-carboxylate-1,1-dioxide]",–,13 µM,> 40 µM,0.0313 µM,> 40 µM,–
"CO[C@H]1C(=O)N2C(C(=O)OC(c3ccccc3)c3ccccc3)=C(C)C3(CC3(c3ccccc3)c3ccccc3)S(=O)(=O)[C@H]12 (stereo partly drawn) [Example 9, Benzhydryl 7α-methoxy-2-spiro (2',2'-diphenyl) cyclopropyl-3-methyl-3-cephem-4-carboxylate-1,1-dioxide]",–,> 10 µM,> 10 µM,0.0545 µM,> 10 µM,–

# Continued, values first:
IC50 (cathepsin C; [2]),IC50 (cathepsin G; [3]),IC50 (thrombin),IC50 [1],IC50 (cathepsin C),IC50 (cathepsin G),Compound
> 9.99 µM,> 30.9 µM,> 40 µM,0.0832 µM,–,–,"CO[C@H]1C(=O)N2C(C(=O)N3CCCC3)=C(C)C3(CC3(c3ccccc3)c3ccccc3)S(=O)(=O)[C@H]12 (stereo partly drawn) [Example 10, 7α-Methoxy-2-spiro (2',2'-diphenyl)cyclopropyl-3-methyl-3-cephem-4-pyrrolidine carboxamide-1,1-dioxide]"
–,0.403 µM,> 9.98 µM,0.0228 µM,> 9.98 µM,–,"CO[C@H]1C(=O)N2C(C(=O)OCC(Cl)(Cl)Cl)=C(C)C3(CC3(c3ccccc3)c3ccccc3)S(=O)(=O)[C@H]12 (stereo partly drawn) [Example 8, 2,2,2-Trichloroethyl-7α-methoxy-2-spiro(2',2'-diphenyl) cyclopropyl-3-methyl-3-cephem-4-carboxylate-1,1-dioxide]"
> 60 µM,20 µM,> 40 µM,0.0328 µM,–,–,"CC1=C(C(=O)OC(c2ccccc2)c2ccccc2)N2C(=O)[C@H](Cl)[C@H]2S(=O)(=O)C12CC2(c1ccccc1)c1ccccc1 (single isomer, unassigned) [Example 1, Benzhydryl 7α-chloro-2-spiro(2',2'-diphenyl) cyclopropyl-3-methyl-3-cephem-4-carboxylate-1,1-dioxide]"
–,19.4 µM,> 55.3 µM,0.235 µM,> 55.3 µM,–,"CC1=C(C(=O)OC(c2ccccc2)c2ccccc2)N2C(=O)[C@H](Br)[C@H]2S(=O)(=O)C12CC2(c1ccc(Cl)cc1)c1ccc(Cl)cc1 (single isomer, unassigned) [Example 12, Benzhydryl 7α-bromo-2-spiro [2',2'-(4',4'-dichloro)diphenyl]cyclopropyl-3-methyl-3-cephem-4-carboxylate-1,1-dioxide]"
